{"source": "paper PMC4914250", "about": "“Cancer therapeutic approach based on conformational stabilization of mutant p53 protein by small peptides” (Oncotarget, 2016)"}
{"system": "mutp53^R175H", "assay": "ELISA of mutp53 conformation (PAb1620/PAb240), H1299-p53^R175H cell extract;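 as to Conform H1299: 0 means no effect and 6 means as or more effective than positive control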", "type": "biochemical, human", "details": "H1299-p53^R175H cell extract, Figure 2A", "from_the_text": "(§1) A total of close to 350 peptides, deduced from the phage sequences, were synthesized and subjected to several alternative complementary methods of semi high-throughput functional screening; we refer to these peptides as pCAPs (p53 conformation activating peptides). First, we used cell-free ELISA assays to evaluate the effect of individual peptides on mutp53 conformation and DNA binding in vitro. For conformation analysis (Figure 2A), microtiter plates were coated with PAb240, PAb1620 or PAb421 as control, then the effect of each peptide on reactivity of mutp53 with these antibodies was examined; WTp53 served as a positive control for PAb1620 reactivity.\n(§2) Cell extracts were added to ELISA plates coated with the indicated antibodies to allow mutp53 to react with the peptides and antibodies. αp53-HRP Ab was used for assessment of p53 levels. Numbers represent ratio of absorbance between the PAb1620 and PAb240 samples. All reads were normalized to the control […] reading of each extract. MCF7 (WTp53) and H1299-mutp53^A135V (tsp53) cells were used as positive controls for the WTp53 conformation (1620/240 ratio equals or exceeds 5:1). […] 96 well plates were coated with anti-p53 antibody, cell extracts containing p53 were reacted with oligonucleotides that contain a p53RE consensus binding site, labeled with biotin, in the presence or absence (NT) of test peptides. Streptavidin-HRP is used to quantify the amount of oligos in the well. TMB assay was performed to determine bound mutp53 levels (450nm). MCF7 and the H1299-mutp53^A135V(TS) cells serve as positive controls for WTp53. C.and D. - Bar graphs illustrating the effect of various selected peptides on mut-p53 dependent expression on cell viability. […] D, ES2 cells expressing endogenous mutp53 (blue bars) and ES2 cells knocked out for p53 by CRISPR construct (light blue bars). Cell lines were treated with selected peptides, Cis-platinum was used as positive control for cell death. 48 hours after treatment, cells were washed with PBS, and the remaining attached cells were stained with Crystal violet and washed 4 times with PBS. Stained cells were dissolved in 10% acetic acid and plates were taken for optical density measurement at […]. TEXT PRINTED IN THE PICTURE: (A) pCAP1: 0.87 | (A) pCAP2: 0.53 | (A) pCAP3: 0.59 | (A) pCAP4: 0.59 | (A) pCAP5: 0.60 | (A) pCAP6: 0.75 | (A) pCAP23: 1.06 | (A) pCAP24: 1.44 | (A) pCAP36: 1.25 | (A) pCAP47: 1.54 | (A) pCAP54: 1.54 | (A) pCAP60: 2.73 | (A) pCAP68: 2.22 | (A) pCAP83: 1.56 | (A) pCAP97: 2.45 DOUBTS OF THE COPYIST ABOUT THIS PICTURE: Panel A: the numbers over the bars are printed very small, rotated and blurred, so 3, 5, 6, 8 and 9 cannot be told apart with certainty. All values are best readings: pCAP1 0.87, pCAP2 0.53, pCAP3 0.59, pCAP4 0.59, pCAP5 0.60, pCAP6 0.75, pCAP23 1.06, pCAP24 1.44, pCAP36 1.25, pCAP47 1.54, pCAP54 1.54, pCAP60 2.73, pCAP68 2.22, pCAP83 1.56, pCAP97 2.45 / Panel A: the picture prints no measure with the numbers over the bars, so they are given as bare numbers / Panel A: numbers are also printed over the controls, which are not substances and are left out of lines. Best readings: NT 0.60, 60° 30'' 0.48, 60° 1' 0.37, 60° 3' 0.13, 60° 10' 0.05, MCF7 3.32, H1299TS 3.25\n(§3) Extracts were prepared at a concentration of 750ng/μl and then reacted for 2 hours with different peptides. Plates coated with the different antibodies were then washed and blocked, and extracts pre-incubated either with or without peptides were added for two additional hours. After removal of extracts, plates were washed and incubated with HRP-conjugated anti-p53 antibody. Finally, HRP activity was quantified by optical density at 450nm. MCF7 cells (expressing WTp53) and H1299-tsp53^A135V cells, stably expressing a temperature sensitive p53 mutant that has mutant conformation at 37°C but WT conformation at 32°C [31], were used as positive controls for the WTp53 conformation (1620/240 ratio 5:1). […]"}
{"substance": "IRGRIIR [pCAP-54]", "reactivity of p53^R175H with PAb1620 and PAb240": "increased the reactivity of p53^R175H with PAb1620 and decreased its reactivity with PAb240"}
{"substance": "WNHHHSTPHPAH [pCAP-97]", "reactivity of p53^R175H with PAb1620 and PAb240": "increased the reactivity of p53^R175H with PAb1620 and decreased its reactivity with PAb240"}
{"substance": "SFILFIRRGRLG [pCAP-60]", "reactivity of p53^R175H with PAb1620 and PAb240": "increased the reactivity of p53^R175H with PAb1620 and decreased its reactivity with PAb240"}
{"substance": "YRRLLIGMMWRRRRRRRRR [pCAP-68]", "reactivity of p53^R175H with PAb1620 and PAb240": "increased the reactivity of p53^R175H with PAb1620 and decreased its reactivity with PAb240"}
{"system": "mutp53^R175H", "assay": "ELISA of mutp53 conformation (PAb1620/PAb240), H1299-p53^R175H cell extract;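 as to Conform H1299: 0 means no effect and 6 means as or more effective than positive control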", "type": "biochemical, human", "details": "score 0-6 compared to positive control; mutp53 conformation", "from_the_text": "as §1, §2, §3"}
{"substance": "HSSHHHPVHSWN [pCAP-83]", "Conform H1299": 4}
{"substance": "IRGRIIR [pCAP-54]", "Conform H1299": 3}
{"substance": "IRILMFLIGCGR [pCAP-23]", "Conform H1299": 2}
{"substance": "IRGRIIRRRRRRRRR [pCAP-54R, pCAP-54 with poly arginine tail]", "Conform H1299": 1}
{"substance": "LRCLLLLIGRVGRRRRRRRR [pCAP-24R, pCAP-24 with poly arginine tail]", "Conform H1299": 3}
{"substance": "YPTQGHLR [pCAP-36]", "Conform H1299": 5}
{"substance": "LRCLLLLIGRVG [pCAP-24]", "Conform H1299": 3}
{"substance": "HHPWTHHQRWS [pCAP-20]", "Conform H1299": 2}
{"substance": "WNHHHSTPHPAH [pCAP-97]", "Conform H1299": 1}
{"substance": "IRILMFLIGCGRRRRRRRRR [pCAP-23R, pCAP-23 with poly arginine tail]", "Conform H1299": 2}
{"substance": "myr-RRKILFIRLMHNKH [pCAP-227, myristoylated peptide, similarity to GAS2]", "Conform H1299": 2}
{"substance": "WNHHHSTPHPAHRRRRRR [pCAP-97R, pCAP-97 with poly arginine tail]", "Conform H1299": 1}
{"substance": "LHSKTLVL [pCAP-17]", "Conform H1299": 2}
{"substance": "HANLHHT [pCAP-87]", "Conform H1299": 3}
{"substance": "myr-RRLIVRILKLPNPPER [pCAP-242]", "Conform H1299": 2}
{"substance": "YRRLLIGMMWRRRRRRRRR [pCAP-68]", "Conform H1299": 4}
{"system": "mutp53 in BT549 cell extract", "assay": "ELISA of mutp53 conformation, BT549;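 also: 0 means no effect and 6 means as or more effective than positive control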", "type": "biochemical, human", "details": "score 0-6 compared to positive control", "from_the_text": "as §1\n96-well plates were coated using 3 different anti p53 monoclonal antibodies, PAb421, PAb240 and PAb1620. Wells were incubated overnight (ON) with 100μl Ab (5μg/ml) in room temp (RT). The liquid was discarded, and the wells were washed 3 times with PBS, 200 μl. Next, blocking with 5% BSA in PBS for 2 hours (RT) was performed, followed by 3 washes in PBS. Samples of mutant and WT p53 proteins (100 μl, 10 μg/ml), together with control peptides or with test peptides 1-326 (5μg /ml), were incubated for 1.5 hours, and then added to the wells for1 hour at RT. 4 washes with PBST were performed. Next, HRP conjugated αp53 antibody (10μg/ml HAF1355 (R&D)) were added to the wells and incubated at RT for 1 hour. Plates were washed 3 times in PBST and TMB substrate solution (50μl each well, Thermo, (Cat. No. ES001-1L-K)) was added and incubated at 37°C for 20 min. The reaction was stopped with 2M Sulfuric acid (50μl). The absorbance was measured at 450 nm with a spectrophotometer. Protein concentration was determined by dividing the absorb an each sample to by the absorbance of PAb421 samples."}
{"substance": "myr-RRIRDPRILLLHFD [pCAP-325]", "Conform BT549": 3}
{"substance": "IRGRIIR [pCAP-54]", "Conform BT549": 2}
{"substance": "IRILMFLIGCGR [pCAP-23]", "Conform BT549": 2}
{"substance": "SFILFIRRGRLGRRRRRRRRR [pCAP-60R, pCAP-60 with poly arginine tail]", "Conform BT549": 2}
{"substance": "IRGRIIRRRRRRRRR [pCAP-54R, pCAP-54 with poly arginine tail]", "Conform BT549": 2}
{"substance": "LRCLLLLIGRVGRRRRRRRR [pCAP-24R, pCAP-24 with poly arginine tail]", "Conform BT549": 2}
{"substance": "LRCLLLLIGRVG [pCAP-24]", "Conform BT549": 2}
{"substance": "IRILMFLIGCGRRRRRRRRR [pCAP-23R, pCAP-23 with poly arginine tail]", "Conform BT549": 1}
{"substance": "myr-RRKILFIRLMHNKH [pCAP-227, myristoylated peptide, similarity to GAS2]", "Conform BT549": 4}
{"substance": "LHSKTLVL [pCAP-17]", "Conform BT549": 2}
{"substance": "EVTFRHSVV [pCAP-1, randomly selected peptide used as inert comparison]", "Conform BT549": 1}
{"substance": "HANLHHT [pCAP-87]", "Conform BT549": 2}
{"substance": "myr-RRLIVRILKLPNPPER [pCAP-242]", "Conform BT549": 4}
{"substance": "SFILFIRRGRLG [pCAP-60]", "Conform BT549": 1}
{"substance": "myr-RRKHNKHRPEPDSDER [pCAP-221]", "Conform BT549": 3}
{"system": "mutp53", "assay": "Summary score of peptide functional screens", "details": "overall score over conformation, DNA binding, viability and PCR screens"}
{"substance": "HSSHHHPVHSWN [pCAP-83]", "SCORE": 27}
{"substance": "myr-RRIRDPRILLLHFD [pCAP-325]", "SCORE": 53}
{"substance": "IRGRIIR [pCAP-54]", "SCORE": 23}
{"substance": "IRILMFLIGCGR [pCAP-23]", "SCORE": 21}
{"substance": "SFILFIRRGRLGRRRRRRRRR [pCAP-60R, pCAP-60 with poly arginine tail]", "SCORE": 32}
{"substance": "myr-PRVLPSPHTIHPSQYP [pCAP-229, myristoylated peptide, similarity to HIPK2]", "SCORE": 35}
{"substance": "IRGRIIRRRRRRRRR [pCAP-54R, pCAP-54 with poly arginine tail]", "SCORE": 28}
{"substance": "LRCLLLLIGRVGRRRRRRRR [pCAP-24R, pCAP-24 with poly arginine tail]", "SCORE": 34}
{"substance": "YPTQGHLR [pCAP-36]", "SCORE": 32}
{"substance": "LRCLLLLIGRVG [pCAP-24]", "SCORE": 23}
{"substance": "HHPWTHHQRWS [pCAP-20]", "SCORE": 19}
{"substance": "WNHHHSTPHPAH [pCAP-97]", "SCORE": 39}
{"substance": "IRILMFLIGCGRRRRRRRRR [pCAP-23R, pCAP-23 with poly arginine tail]", "SCORE": 24}
{"substance": "myr-RRKILFIRLMHNKH [pCAP-227, myristoylated peptide, similarity to GAS2]", "SCORE": 56}
{"substance": "WNHHHSTPHPAHRRRRRR [pCAP-97R, pCAP-97 with poly arginine tail]", "SCORE": 46}
{"substance": "LHSKTLVL [pCAP-17]", "SCORE": 20}
{"substance": "EVTFRHSVV [pCAP-1, randomly selected peptide used as inert comparison]", "SCORE": 19}
{"substance": "HANLHHT [pCAP-87]", "SCORE": 32}
{"substance": "myr-RRLIVRILKLPNPPER [pCAP-242]", "SCORE": 55}
{"substance": "SFILFIRRGRLG [pCAP-60]", "SCORE": 26}
{"substance": "myr-RRKHNKHRPEPDSDER [pCAP-221]", "SCORE": 58}
{"substance": "YRRLLIGMMWRRRRRRRRR [pCAP-68]", "SCORE": 37}
